These results are taken from publication PMC6219699 (Nuclear medicine communications, 2011).

As a reminder, the IC50 is the concentration at which inhibition is half-maximal. High values mean weaker potency in that assay, low ones greater potency in that assay.

The target in the assay is T1, human sodium/iodide symporter (hNIS) (Homo sapiens, UniProt Q92911).
T1 sequence (Q92911 1-643): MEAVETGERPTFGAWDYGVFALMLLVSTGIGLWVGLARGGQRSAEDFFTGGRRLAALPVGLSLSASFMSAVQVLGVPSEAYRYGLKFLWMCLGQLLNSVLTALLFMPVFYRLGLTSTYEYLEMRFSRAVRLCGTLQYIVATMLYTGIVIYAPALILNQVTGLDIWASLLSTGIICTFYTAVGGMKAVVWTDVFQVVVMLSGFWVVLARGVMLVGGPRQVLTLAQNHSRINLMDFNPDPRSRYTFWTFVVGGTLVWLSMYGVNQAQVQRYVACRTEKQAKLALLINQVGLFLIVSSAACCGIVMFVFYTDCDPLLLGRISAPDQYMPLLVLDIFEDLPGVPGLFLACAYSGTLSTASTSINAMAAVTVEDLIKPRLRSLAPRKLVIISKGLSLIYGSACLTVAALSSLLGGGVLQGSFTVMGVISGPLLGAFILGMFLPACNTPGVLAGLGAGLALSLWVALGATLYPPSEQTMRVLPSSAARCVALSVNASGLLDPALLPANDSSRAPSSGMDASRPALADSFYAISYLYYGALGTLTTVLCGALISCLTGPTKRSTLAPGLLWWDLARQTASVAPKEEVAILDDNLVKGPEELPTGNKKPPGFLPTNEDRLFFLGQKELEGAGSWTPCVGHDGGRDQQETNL
The class given is cell-based.

Compound `F[B-](F)(F)F` [tetrafluoroborate] had an IC50 of 740 nM.
